Assay results reported in paper PMC10970486 (Bioconjugate chemistry, 2024).

Target: MelBSt (melibiose permease) (Salmonella enterica, UniProt P30878)
Test: displacement of D2G, Trp to dansyl FRET
Format: binding
Details: excess melibiose added after D2G; extract in DDM, TMG-A13 or TMG-P10,8

Sequence of MelBSt (melibiose permease) (P30878 whole entry): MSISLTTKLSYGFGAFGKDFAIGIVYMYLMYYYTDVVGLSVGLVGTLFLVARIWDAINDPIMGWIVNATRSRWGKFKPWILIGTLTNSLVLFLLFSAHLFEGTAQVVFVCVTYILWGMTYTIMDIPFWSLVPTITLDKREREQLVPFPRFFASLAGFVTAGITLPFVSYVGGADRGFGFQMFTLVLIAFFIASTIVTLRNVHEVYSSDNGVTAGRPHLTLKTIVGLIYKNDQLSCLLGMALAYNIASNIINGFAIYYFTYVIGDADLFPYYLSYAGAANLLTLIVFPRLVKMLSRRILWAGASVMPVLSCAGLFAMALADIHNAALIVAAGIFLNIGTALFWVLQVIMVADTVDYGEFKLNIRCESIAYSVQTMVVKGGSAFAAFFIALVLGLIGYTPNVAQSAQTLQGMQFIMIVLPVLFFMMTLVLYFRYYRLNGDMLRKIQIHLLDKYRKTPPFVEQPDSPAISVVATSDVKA

SMILES: OC[C@H]1O[C@H](OC[C@H]2OC(O)[C@H](O)[C@@H](O)[C@@H]2O)[C@H](O)[C@@H](O)[C@H]1O (stereo partly shown) [melibiose]
- displacement of D2G, Trp to dansyl FRET: excess melibiose replaces the dansyl ligand with the non-fluorescent substrate in the active site
